{"source": "paper PMC11325787", "about": "“A fluorescence polarization assay for high-throughput screening of inhibitors against HIV-1 Nef-mediated MHC-I downregulation” (The Journal of Biological Chemistry, 2024)", "key": {"[1]": {"target": "T1, MBP-Nef-μ1^CTD (UniProt P03406+P35585)", "T1 construct": "fusing HIV-1 Nef (59–206, NL4.3) to the C terminal domain of μ1 subunit of AP1; to the C terminal domain of μ1 subunit of AP1 via a flexible linker of 20 amino acids; 6xHis (C); made in house; host or cells: Escherichia coli", "T1 sequence (P03406 59-206 limits assumed)": "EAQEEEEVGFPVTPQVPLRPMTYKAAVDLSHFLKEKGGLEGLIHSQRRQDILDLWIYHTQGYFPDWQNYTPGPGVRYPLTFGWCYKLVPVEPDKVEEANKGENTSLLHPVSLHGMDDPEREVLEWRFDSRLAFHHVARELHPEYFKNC", "T1 sequence (P35585 168-421 limits assumed)": "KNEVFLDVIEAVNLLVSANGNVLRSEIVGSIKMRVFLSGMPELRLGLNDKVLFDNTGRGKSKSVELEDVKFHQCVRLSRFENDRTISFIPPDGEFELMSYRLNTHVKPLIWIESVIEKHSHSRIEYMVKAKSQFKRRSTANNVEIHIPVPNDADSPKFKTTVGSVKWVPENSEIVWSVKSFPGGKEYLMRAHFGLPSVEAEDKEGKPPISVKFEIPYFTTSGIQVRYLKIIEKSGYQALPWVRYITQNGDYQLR", "type": "binding, HIV-1 (Nef 59–206, NL4.3)", "conditions": "300 μM, result in words; for effect on FP signal: 30 μM MBP-Nef-μ1^CTD, 50 nM TMR-enhanced-MHC-ICD, room temperature; for effect on FP signal / noise in the assay: final dimethylsulfoxide 3%; for background of the assay: not shown"}, "[2]": {"test": "Stability of the probes on the bench", "conditions": "room temperature"}, "[3]": {"target": "T1, MBP-Nef-μ1^CTD", "test": "Fluorescence polarization binding assay of TMR-labelled MHC-ICD probes with the Nef-μ1^CTD fusion", "set-up": "species or system HIV-1 (Nef 59–206, NL4.3)", "conditions": "50 nM probe"}, "[4]": {"target": "TMR-MHC-ICD", "test": "fluorescence polarisation"}, "[5]": {"target": "T1, MBP-Nef-μ1^CTD", "test": "Competition of TMR-enhanced-MHC-ICD by unlabeled enhanced-MHC-ICD peptide (FP)", "type": "binding, HIV-1 (Nef 59–206, NL4.3)", "conditions": "room temperature, result in words", "source_text": "We next investigated whether our assay is sensitive to competitive inhibition. Here, an unlabeled, modified MHC-ICD peptide was used as the competitor. The sequence of this competitor peptide is different from the authentic sequence of MHC-ICD in the following ways. […] Second, to improve the solubility of the competitor peptide, we introduced three additional mutations in the MHC-ICD sequence: Q322E, G325S, and S326D. According to the previous structure, these mutations should not interfere with Nef-μ1^CTD binding but should increase the peptide’s hydrophilicity.\nThe Nef-μ1^CTD fusion was constructed by fusing HIV-1 Nef (59–206, NL4.3) to the C terminal domain of μ1 subunit of AP1 via a flexible linker of 20 amino acids. Gene encoding the above Nef-μ1^CTD fusion was cloned into a modified pMAT9 expression vector with a 6xHis tag introduced at the C-terminus of the fusion protein. Escherichia coli cells transformed with the plasmid were grown at 37 °C till A600 reached 0.8. Protein expression was then induced with 0.1 mM IPTG and continued at 16 °C overnight. Cells were then lysed using sonication. The protein of interest was purified sequentially through a Ni-NTA affinity column, a MBP affinity column, a HiTrap Q anion exchange column, and finally a Superdex 200 size exclusion column.\nFor competition using unlabeled enhanced-MHC-ICD peptide, a stock solution of 1.2 mM unlabeled enhanced-MHC-ICD peptide was first prepared. The stock solution was then serial-diluted (2-fold each) 10 times. […] The plate was incubated at room temperature and read at different time points. FP values were recorded. All experiments were done in triplicates."}, "[6]": {"test": "Precipitation/solubility of competitor peptide observed during experiments", "type": "physicochemical", "conditions": "seen during experiments; stock solution 1.2 mM; result in words"}}, "note": "Peptide text beside a SMILES is read from it. * marks the point of attachment. X1 = CN(C)c1ccc2c(-c3ccc(C(=O)*)cc3C(=O)[O-])c3ccc(=[N+](C)C)cc-3oc2c1; 5TAMRA = CN(C)c1ccc2c(c1)Oc1cc(N(C)C)ccc1C21OC(=O)c2cc(C(=O)*)ccc21"}
{"compound": "OC[C@H]1O[C@H](O[C@H]2[C@H](O)[C@@H](O)C(O)O[C@@H]2CO)[C@H](O)[C@@H](O)[C@@H]1O", "note": "(mixture of isomers) [maltose]", "values": [{"measurement": "effect on FP signal", "setting": "[1]", "result": "did not lead to any meaningful decrease of the FP signal"}, {"measurement": "noise in the assay", "setting": "[1]", "result": "did not cause noise"}, {"measurement": "background of the assay", "setting": "[1]", "result": "no fluctuation at all"}]}
{"compound": "TMR-SDSQAAGSRSAQ [TMR-mutant-MHC-ICD]", "values": [{"measurement": "stability of probe", "setting": "[2]", "result": "at least 20 h"}, {"measurement": "FP signal at Nef-μ1^CTD concentration beyond 50 μM", "setting": "[3]; Nef-μ1^CTD >50 μM, noise believed to be light scattering of MBP-Nef-μ1^CTD, result in words", "result": "increased modestly"}]}
{"compound": "MBP-Nef-μ1^CTD fusion protein (from UniProt P03406;P35585)", "values": [{"measurement": "Kd", "setting": "[4]", "result": 44.1, "unit": "µM"}]}
{"compound": "CC(C)C[C@H](NC(=O)[C@H](CCC(=O)O)NC(=O)[C@H](CO)NC(=O)[C@H](Cc1ccc(O)cc1)NC(=O)[C@@H](N)CO)C(=O)N[C@@H](C)C(=O)N[C@@H](CO)C(=O)N[C@@H](CC(=O)O)C(=O)N[C@@H](CC(=O)O)C(=O)N[C@@H](CO)C(=O)N[C@@H](C)C(=O)N[C@@H](CCC(N)=O)C(=O)O", "note": "[unlabeled enhanced MHC-ICD peptide] (H-SYSELASDDSAQ-OH; N-terminus and C-terminus assumed)", "values": [{"measurement": "effect on FP signal (displacement of TMR-enhanced-MHC-ICD probe)", "setting": "[5]; 30 μM MBP-Nef-μ1^CTD, 50 nM TMR-enhanced-MHC-ICD, varied competitor, triplicates", "result": "dose-dependent decrease of the FP signal"}, {"measurement": "competition of the fluorescence-labeled probe after 1-h incubation", "setting": "[5]; 1-h incubation, three independent samples, one-way ANOVA p < 0.0001", "result": "successfully observed"}, {"measurement": "competition signals after 4 h", "setting": "[5]; 4 h, three independent samples, longer incubation led to a gradual decrease of the FP signal (not shown)", "result": "remained stable"}, {"measurement": "precipitation", "setting": "[6]", "result": "sometimes forms precipitates"}]}
{"compound": "C[C@H](NC(=O)[C@H](C)NC(=O)[C@H](CCC(N)=O)NC(=O)[C@H](CO)NC(=O)[C@H](Cc1ccc(O)cc1)NC(=O)[C@H](CO)NC(=O)c1ccc(-c2c3ccc(=[N+](C)C)cc-3oc3cc(N(C)C)ccc23)c(C(=O)[O-])c1)C(=O)NCC(=O)N[C@@H](CO)C(=O)N[C@@H](CC(=O)O)C(=O)N[C@@H](CO)C(=O)N[C@@H](C)C(=O)N[C@@H](CCC(N)=O)C(=O)O", "note": "[TMR-MHC-ICD] (X1-SYSQAAGSDSAQ-OH; N-terminus and C-terminus assumed)", "values": [{"measurement": "stability of probe", "setting": "[2]", "result": "at least 20 h"}, {"measurement": "Kd", "setting": "[3]; FP, MBP-Nef-μ1^CTD varied, 15 μl, 384-well, 50 mM Tris, 150 mM NaCl, 0.5 mM DTT, 0.01% Triton X-100, pH 8.0, 1∼2 h, room temperature, ex 535 nm, em 595 nm, triplicates, TMR-mutant-MHC-ICD signal subtracted, one-site binding fit, read-out: KD (dissociation constant)", "result": 44.1, "unit": "µM"}, {"measurement": "signal window (difference between probe and TMR-mutant-MHC-ICD curves)", "setting": "[3]; low Nef-μ1^CTD concentrations, result in words", "result": "very modest"}]}
{"compound": "CC(C)C[C@H](NC(=O)[C@H](CCC(N)=O)NC(=O)[C@H](CO)NC(=O)[C@H](Cc1ccc(O)cc1)NC(=O)[C@H](CO)NC(=O)c1ccc2c(c1)C(=O)OC21c2ccc(N(C)C)cc2Oc2cc(N(C)C)ccc21)C(=O)N[C@@H](C)C(=O)NCC(=O)N[C@@H](CO)C(=O)N[C@@H](CC(=O)O)C(=O)N[C@@H](CO)C(=O)N[C@@H](C)C(=O)N[C@@H](CCC(N)=O)C(=O)O", "note": "[TMR-enhanced-MHC-ICD] (5TAMRA-SYSQLAGSDSAQ-OH)", "values": [{"measurement": "stability of probe", "setting": "[2]", "result": "at least 20 h"}]}
{"compound": "O=C(N[C@H](CO)[C@H](O)c1ccc([N+](=O)[O-])cc1)C(Cl)Cl", "note": "[chloramphenicol]", "values": [{"measurement": "effect on FP signal", "setting": "[1]", "result": "did not lead to any meaningful decrease of the FP signal"}, {"measurement": "noise in the assay", "setting": "[1]", "result": "did not cause noise"}, {"measurement": "background of the assay", "setting": "[1]", "result": "no fluctuation at all"}]}
